Experiment: xn = mol fraction of the nth substance listed

CC[N+](=O)[O-] + CO
viscosity [mPa·s], 101.33 kPa
Conditions	293.15 K	303.15 K	313.15 K
x2 = 0.0501	0.657	0.586	0.527
x2 = 0.0999	0.634	0.565	0.508
x2 = 0.1503	0.617	0.549	0.493
x2 = 0.2	0.603	0.536	0.48
x2 = 0.25	0.593	0.526	0.471
x2 = 0.3	0.584	0.517	0.462
x2 = 0.3501	0.576	0.51	0.455
x2 = 0.4	0.57	0.504	0.448
x2 = 0.45	0.564	0.498	0.442
x2 = 0.5	0.559	0.493	0.438
x2 = 0.55	0.556	0.489	0.433
x2 = 0.6	0.553	0.487	0.43
x2 = 0.65	0.552	0.485	0.428
x2 = 0.6999	0.552	0.486	0.428
x2 = 0.75	0.555	0.486	0.427
x2 = 0.8	0.558	0.487	0.428
x2 = 0.85	0.562	0.49	0.43
x2 = 0.9	0.567	0.495	0.434
x2 = 0.95	0.576	0.501	0.437

NCCC(=O)O + O
viscosity [mPa·s], 100 kPa
Conditions	x1 = 0.000358	x1 = 0.000542	x1 = 0.00072	x1 = 0.000808	x1 = 0.00108	x1 = 0.00126	x1 = 0.00144	x1 = 0.0018
293.15 K	1.006	1.008	1.009	1.011	1.014	1.016	1.018	1.022
298.15 K	0.894	0.894	0.896	0.898	0.901	0.902	0.905	0.908
303.15 K	0.8	0.8	0.802	0.804	0.805	0.807	0.809	0.812
308.15 K	0.721	0.721	0.723	0.725	0.725	0.728	0.729	0.732
313.15 K	0.653	0.653	0.655	0.657	0.657	0.659	0.66	0.663

[I-].[K+] + O
310.15 K, 101 kPa
Conditions	viscosity [mPa·s]
x1 = 0.000916	0.6942
x1 = 0.001822	0.6976
x1 = 0.001827	0.7047
x1 = 0.002695	0.7079
x1 = 0.003679	0.7155
x1 = 0.005197	0.7273
x1 = 0.005988	0.7335

CCCCN + O=C1CCCCC1
Conditions	viscosity [mPa·s]
298.15 K, 101 kPa, x2 = 0.0765	0.623
298.15 K, 101 kPa, x2 = 0.157	0.754
298.15 K, 101 kPa, x2 = 0.2421	0.903
298.15 K, 101 kPa, x2 = 0.3319	1.06
298.15 K, 101 kPa, x2 = 0.427	1.223
298.15 K, 101 kPa, x2 = 0.5278	1.392
298.15 K, 101 kPa, x2 = 0.6349	1.563
298.15 K, 101 kPa, x2 = 0.7488	1.725
298.15 K, 101 kPa, x2 = 0.8702	1.88
303.15 K, 101.33 kPa, x1 = 0.1251	2.752
303.15 K, 101.33 kPa, x1 = 0.2012	2.984
303.15 K, 101.33 kPa, x1 = 0.2448	3.075
303.15 K, 101.33 kPa, x1 = 0.3617	3.092
303.15 K, 101.33 kPa, x1 = 0.5296	2.811
303.15 K, 101.33 kPa, x1 = 0.6105	2.592
303.15 K, 101.33 kPa, x1 = 0.7626	1.94
303.15 K, 101.33 kPa, x1 = 0.887	1.202

CC[N+](=O)[O-] + ClC(Cl)(Cl)Cl
viscosity [mPa·s], 101 kPa
Conditions	x1 = 0.1	x1 = 0.2	x1 = 0.3	x1 = 0.4	x1 = 0.5	x1 = 0.6	x1 = 0.7	x1 = 0.8	x1 = 0.9
303.15 K	0.7767	0.7448	0.7173	0.6971	0.6667	0.6402	0.6152	0.5924	0.5824
308.15 K	0.7408	0.6988	0.6673	0.6509	0.6305	0.6024	0.5769	0.5634	0.5522
318.15 K	0.6485	0.6213	0.597	0.5764	0.5533	0.5327	0.514	0.4996	0.4945

From the CheMixHub viscosity set
